In ChEMBL document CHEMBL1201862, “PubChem BioAssay data set” (2004):
Active and inactive are the calls of the source. Cut-off read from the data, not from the text of the source: actives have a measured IC50 and inactives only a lower limit.

Experiments:
Format in all cases: functional
Caspase-3 = target: T1, Caspase-3 (Homo sapiens, UniProt P42574);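 note: Dose-response selectivity test against caspase-3 for candidate inhibitors of sentrin-specific proteases (SENPs)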
T1 sequence (P42574 whole entry): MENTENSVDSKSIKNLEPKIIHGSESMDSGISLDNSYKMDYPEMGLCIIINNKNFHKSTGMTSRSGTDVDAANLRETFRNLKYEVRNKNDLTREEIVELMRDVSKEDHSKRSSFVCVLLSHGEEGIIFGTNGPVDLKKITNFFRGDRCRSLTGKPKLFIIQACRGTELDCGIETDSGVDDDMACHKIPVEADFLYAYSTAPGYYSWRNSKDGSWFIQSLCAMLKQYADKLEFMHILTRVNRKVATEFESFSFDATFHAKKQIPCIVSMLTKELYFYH

[1] = target: T2, Sentrin-specific protease 7 (Homo sapiens, UniProt Q9BQF6);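 note: Luminescence-based dose-response confirmation of ultra-high-throughput screening hits, measuring inhibition of SENP7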
T2 sequence (Q9BQF6 whole entry): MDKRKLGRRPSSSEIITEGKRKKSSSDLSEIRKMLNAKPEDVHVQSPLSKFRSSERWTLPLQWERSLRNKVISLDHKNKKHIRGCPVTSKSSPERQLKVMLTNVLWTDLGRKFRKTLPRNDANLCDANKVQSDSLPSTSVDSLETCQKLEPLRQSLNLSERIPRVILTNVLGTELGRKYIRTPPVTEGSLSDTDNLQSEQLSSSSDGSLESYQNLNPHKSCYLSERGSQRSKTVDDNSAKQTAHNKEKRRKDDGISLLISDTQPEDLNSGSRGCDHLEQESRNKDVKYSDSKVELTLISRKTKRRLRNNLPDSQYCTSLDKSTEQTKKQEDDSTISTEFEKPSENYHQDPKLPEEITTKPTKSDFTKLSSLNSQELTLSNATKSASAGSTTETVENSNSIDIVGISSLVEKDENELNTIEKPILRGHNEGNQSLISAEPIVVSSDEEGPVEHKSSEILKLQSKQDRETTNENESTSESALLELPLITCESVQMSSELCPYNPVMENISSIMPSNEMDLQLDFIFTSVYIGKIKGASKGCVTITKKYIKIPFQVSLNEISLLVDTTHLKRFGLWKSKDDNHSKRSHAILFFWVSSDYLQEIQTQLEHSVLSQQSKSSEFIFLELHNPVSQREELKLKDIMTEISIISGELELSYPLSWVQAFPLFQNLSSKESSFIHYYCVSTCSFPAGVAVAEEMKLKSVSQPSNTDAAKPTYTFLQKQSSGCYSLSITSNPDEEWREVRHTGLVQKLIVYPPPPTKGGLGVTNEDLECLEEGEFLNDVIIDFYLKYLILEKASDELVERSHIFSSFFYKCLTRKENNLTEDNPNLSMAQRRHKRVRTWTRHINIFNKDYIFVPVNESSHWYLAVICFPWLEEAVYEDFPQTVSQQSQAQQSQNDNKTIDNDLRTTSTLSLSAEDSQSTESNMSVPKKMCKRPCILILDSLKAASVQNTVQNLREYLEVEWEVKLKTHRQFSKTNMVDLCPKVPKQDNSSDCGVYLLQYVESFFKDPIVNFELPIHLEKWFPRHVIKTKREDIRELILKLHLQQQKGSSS

[2] = target: T3, Sentrin-specific protease 6 (Homo sapiens, UniProt Q9GZR1);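 note: Luminescence-based dose-response confirmatory assay of SENP6 inhibition, following up an ultra-high-throughput screen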
T3 sequence (Q9GZR1 whole entry): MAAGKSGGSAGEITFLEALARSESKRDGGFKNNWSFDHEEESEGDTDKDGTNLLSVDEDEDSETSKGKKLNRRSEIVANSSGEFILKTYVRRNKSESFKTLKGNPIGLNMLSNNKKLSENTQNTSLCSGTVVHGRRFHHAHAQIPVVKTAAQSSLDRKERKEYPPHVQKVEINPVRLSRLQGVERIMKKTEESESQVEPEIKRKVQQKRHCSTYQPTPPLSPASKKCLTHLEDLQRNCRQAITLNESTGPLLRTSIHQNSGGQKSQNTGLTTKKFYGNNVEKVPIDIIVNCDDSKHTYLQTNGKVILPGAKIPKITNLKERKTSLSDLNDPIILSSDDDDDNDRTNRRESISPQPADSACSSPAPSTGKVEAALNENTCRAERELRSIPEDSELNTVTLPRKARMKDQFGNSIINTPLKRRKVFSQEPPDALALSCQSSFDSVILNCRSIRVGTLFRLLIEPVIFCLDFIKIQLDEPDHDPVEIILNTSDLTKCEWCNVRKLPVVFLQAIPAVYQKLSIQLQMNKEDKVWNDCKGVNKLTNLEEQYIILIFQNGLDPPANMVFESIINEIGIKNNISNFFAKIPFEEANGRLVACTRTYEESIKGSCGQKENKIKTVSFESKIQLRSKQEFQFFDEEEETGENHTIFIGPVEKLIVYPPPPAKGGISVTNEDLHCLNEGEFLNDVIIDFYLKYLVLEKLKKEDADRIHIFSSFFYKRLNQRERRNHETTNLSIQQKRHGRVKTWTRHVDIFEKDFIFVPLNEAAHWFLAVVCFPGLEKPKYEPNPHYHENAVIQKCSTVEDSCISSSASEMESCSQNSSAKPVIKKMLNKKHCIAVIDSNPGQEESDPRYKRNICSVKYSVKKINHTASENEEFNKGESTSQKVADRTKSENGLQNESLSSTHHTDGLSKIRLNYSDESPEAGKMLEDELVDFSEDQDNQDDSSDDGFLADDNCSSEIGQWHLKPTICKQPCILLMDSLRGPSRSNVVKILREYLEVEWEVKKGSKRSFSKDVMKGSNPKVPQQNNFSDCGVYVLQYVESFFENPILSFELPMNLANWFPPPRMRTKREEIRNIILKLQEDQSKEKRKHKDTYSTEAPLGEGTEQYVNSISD

[3] = target: T4, Sentrin-specific protease 8 (Homo sapiens, UniProt Q96LD8);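 note: luminescence read-out of SENP8 inhibition, dose-response confirmation following an ultra-high-throughput screen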
T4 sequence (Q96LD8 whole entry): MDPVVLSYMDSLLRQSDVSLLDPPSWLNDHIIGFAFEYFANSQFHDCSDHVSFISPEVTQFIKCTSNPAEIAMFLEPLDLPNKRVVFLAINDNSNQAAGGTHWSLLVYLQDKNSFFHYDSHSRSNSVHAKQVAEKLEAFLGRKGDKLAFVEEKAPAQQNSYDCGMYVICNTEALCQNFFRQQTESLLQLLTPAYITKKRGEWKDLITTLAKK

Measured: IC50

O=c1oc2c(O)cccc2cc1-c1nc2ccccc2[nH]1
active: Caspase-3 0.95 µM | [1] 0.955 µM | [2] 1.26 µM | [3] 2.65 µM

C=CCn1c(NC(=O)c2ccccc2Cl)c(C#N)c2nc3ccccc3nc21
active: Caspase-3 5.6 µM | [1] 3.08 µM | [2] < 1.55 µM | [3] < 1.55 µM

CCOC(=O)c1ccc(Nc2cc3ccccc3c(O)n2)cc1
active: Caspase-3 8.27 µM | [1] 10.1 µM | [2] 6.63 µM | [3] 13.6 µM
